Patent publication US20220305012A1, “L[…] TREATING SLEEP ISSUES” (EISAI R&D MANAGEMENT CO., LTD., priority 2019, published 2022)

Key:
[1] = tested on: Subjects Having Insomnia Disorder; assay: Example 1: Insomnia Severity Index Daytime Functioning (Items 4-7); type: in vivo, human
Source text: As used herein, the term “Insomnia Severity Index”, abbreviated as “ISI”, is an index calculated using a 7-item, self-report questionnaire assessing the nature, severity, and impact of insomnia (see Bastien, C. H., et al. “Validation of the Insomnia Severity Index as an outcome measure for insomnia research.” Sleep Med. 2001; 2(4): 297-307). The questionnaire evaluates: (1) severity of sleep onset; (2) sleep maintenance; (3) early morning awakening problems; (4) sleep dissatisfaction; (5) interference caused by sleep difficulties with daytime functioning; (6) noticeability of sleep problems by others; and (7) distress caused by the sleep difficulties. A 5-point scale is used to rate each item (0=no problem to 4=very severe problem) yielding a total score from 0 to 28. Total ISI score (items (1)-(7)) and daytime functioning (items (4)-(7)) are analyzed separately.
Month 1 Assessment: Standard safety assessments were performed on the subject. A blood sample was collected for determination of plasma concentration of lemborexant and its metabolites, and the ISI, FSS, PGI-Insomnia, EQ-5D-3L, and eC-SSR were completed.
Month 3 Assessment: All assessments conducted at the Month 1 Assessment were repeated.
Month 6 Assessment: All assessments conducted at the Month 1 Assessment were repeated, and subjects completed the WPAI-GH.
In addition to the aforementioned study endpoints, the study included several additional secondary endpoints: • Mean change from study baseline of subjective sleep onset latency, subjective sleep efficiency, subjective wake after sleep onset, and subjective total sleep time at the beginning of treatment (mean of the 7 nights after the first dose in Period 1), at Month 1 and at Month 3. • Mean change from study baseline of subjective total sleep time at Month 6. • Change from study baseline in daytime functioning, assessed as the total score from the 4 items on daytime functioning, on the Insomnia Severity Index, at Months 1, 3, and 6.

[2] = tested on: Subjects Having Insomnia Disorder; assay: Example 3: proportion of subjects whose ISI Total Score decreased and was <10 (pooled); type: in vivo, human; conditions: for percentage of subjects whose ISI Total Score decreased at month 1 and was less than 10: end of month 1, pooled Examples 1 and 2; for Responder No: subjects whose Insomnia Severity Index Total Score decreased from Baseline to Month 1 and was <10 / Responder Yes: subjects whose Insomnia Severity Index Total Score decreased from Baseline to Month 1 and was <10: Full Analysis Set, Examples 1 and 2; for Responder No: subjects whose Insomnia Severity Index Total Score decreased from Baseline to Month 1 and was <10 / Responder Yes: subjects whose Insomnia Severity Index Total Score decreased from Baseline to Month 1 and was <10 / Difference of proportion of responders vs. Placebo: Month 1; for Difference of proportion of responders vs. Placebo: ISI Total Score decreased and <10
Description: The data collected in studies described in Example 1 and Example 2 were pooled and the response of each subject was analyzed.
Table 32 provides the summary and analysis of responders, defined as those subjects whose Total ISI Score decreased at the end of month 1 by 7 or more points compared to baseline. Table 33 provides the summary and analysis of responders, defined as those subjects whose ISI Total Score decreased compared to baseline and was less than 10 at month 1.

Cc1ncc(OC[C@@]2(c3cccc(F)c3)C[C@H]2C(=O)Nc2ccc(F)cn2)c(C)n1 [Lemborexant, (1R,2S)-2-(((2,4-dimethylpyrimidin-5-yl)oxy)methyl)-2-(3-fluorophenyl)-N-(5-fluoropyridin-2-yl)cyclopropanecarboxamide]
ISI Daytime Functioning (Items 4-7), Mean ([1]; 5 mg, Month 1): 7.2 | ISI Daytime Functioning (Items 4-7), Median ([1]; 5 mg, Month 1): 7.0 | ISI Daytime Functioning (Items 4-7), Mean ([1]; 5 mg, Month 3): 6.2 | ISI Daytime Functioning (Items 4-7), Median ([1]; 5 mg, Month 3): 6.0 | ISI Daytime Functioning (Items 4-7), Mean ([1]; 5 mg, Month 6): 5.4 | ISI Daytime Functioning (Items 4-7), Median ([1]; 5 mg, Month 6): 5.0 | ISI Daytime Functioning Change from Study Baseline, Mean ([1]; 5 mg, Month 6): −6.0 | ISI Daytime Functioning Change from Study Baseline, Median ([1]; 5 mg, Month 6): −6.0 | ISI Daytime Functioning LSM treatment difference: Lemborexant/Placebo ([1]; 5 mg, Month 6): −1.30 | ISI Daytime Functioning (Items 4-7), Mean ([1]; 5 mg, Study Baseline): 11.4 | ISI Daytime Functioning (Items 4-7), Median ([1]; 5 mg, Study Baseline): 11.0 | ISI Daytime Functioning Change from Study Baseline, Mean ([1]; 5 mg, after 1 Month): −4.1 | ISI Daytime Functioning Change from Study Baseline, Median ([1]; 5 mg, after 1 Month): −3.0 | ISI Daytime Functioning Change from Study Baseline, Mean ([1]; 5 mg, after 3 Months): −5.2 | ISI Daytime Functioning Change from Study Baseline, Median ([1]; 5 mg, after 3 Months): −5.0 | ISI Daytime Functioning LSM treatment difference: Lemborexant/Placebo ([1]; 5 mg, change from Study Baseline after 1 Month): −0.71 | ISI Daytime Functioning LSM treatment difference: Lemborexant/Placebo ([1]; 5 mg, change from Study Baseline after 3 Months): −1.16 | ISI Daytime Functioning (Items 4-7), Mean ([1]; 10 mg, Month 1): 7.0 | ISI Daytime Functioning (Items 4-7), Median ([1]; 10 mg, Month 1): 7.0 | ISI Daytime Functioning (Items 4-7), Mean ([1]; 10 mg, Month 3): 6.0 | ISI Daytime Functioning (Items 4-7), Median ([1]; 10 mg, Month 3): 5.0 | ISI Daytime Functioning (Items 4-7), Mean ([1]; 10 mg, Month 6): 5.4 | ISI Daytime Functioning (Items 4-7), Median ([1]; 10 mg, Month 6): 5.0 | ISI Daytime Functioning Change from Study Baseline, Mean ([1]; 10 mg, Month 6): −5.7 | ISI Daytime Functioning Change from Study Baseline, Median ([1]; 10 mg, Month 6): −6.0 | ISI Daytime Functioning LSM treatment difference: Lemborexant/Placebo ([1]; 10 mg, Month 6): −1.32 | ISI Daytime Functioning (Items 4-7), Mean ([1]; 10 mg, Study Baseline): 11.0 | ISI Daytime Functioning (Items 4-7), Median ([1]; 10 mg, Study Baseline): 11.0 | ISI Daytime Functioning Change from Study Baseline, Mean ([1]; 10 mg, after 1 Month): −4.2 | ISI Daytime Functioning Change from Study Baseline, Median ([1]; 10 mg, after 1 Month): −4.0 | ISI Daytime Functioning Change from Study Baseline, Mean ([1]; 10 mg, after 3 Months): −5.2 | ISI Daytime Functioning Change from Study Baseline, Median ([1]; 10 mg, after 3 Months): −5.0 | ISI Daytime Functioning LSM treatment difference: Lemborexant/Placebo ([1]; 10 mg, change from Study Baseline after 1 Month): −0.94 | ISI Daytime Functioning LSM treatment difference: Lemborexant/Placebo ([1]; 10 mg, change from Study Baseline after 3 Months): −1.36 | percentage of subjects whose ISI Total Score decreased at month 1 and was less than 10 ([2]; 5 mg): 33.0% | percentage of subjects whose ISI Total Score decreased at month 1 and was less than 10 ([2]; 10 mg): 33.4% | Responder No: subjects whose Insomnia Severity Index Total Score decreased from Baseline to Month 1 and was <10 ([2]; Lemborexant 5 mg (N = 582)): 366 (62.9) n (%) | Responder Yes: subjects whose Insomnia Severity Index Total Score decreased from Baseline to Month 1 and was <10 ([2]; Lemborexant 5 mg (N = 582)): 192 (33.0) n (%) | Difference of proportion of responders vs. Placebo ([2]; Lemborexant 5 mg vs placebo): 12.44 | Responder No: subjects whose Insomnia Severity Index Total Score decreased from Baseline to Month 1 and was <10 ([2]; Lemborexant 10 mg (N = 584)): 345 (59.1) n (%) | Responder Yes: subjects whose Insomnia Severity Index Total Score decreased from Baseline to Month 1 and was <10 ([2]; Lemborexant 10 mg (N = 584)): 195 (33.4) n (%) | Difference of proportion of responders vs. Placebo ([2]; Lemborexant 10 mg vs placebo): 12.71 | difference of proportion of responders (ISI Total Score decreased and less than 10) versus placebo ([2]; both doses, month 1 (Table 33)): statistically significant
